Paper PMC4213378, “Pharmacokinetics and Efficacy of the Spleen Tyrosine Kinase Inhibitor R406 after Ocular Delivery for Retinoblastoma” (Pharmaceutical Research, 2014)

Key:
[1] = Plasma pharmacokinetics after oral or subconjunctival administration; type: in vivo, mouse; settings: local (subconjunctival), mice
Procedure: For oral delivery of R788, the target dose of 25 mg/kg R788 was administered by oral gavage as a 4 mM solution in 0.01 N citrate buffer, pH 6 ([9]). For subconjunctival administration, R788 was prepared at a concentration of 4 mM in 2% PEG-800 and filtered through a 0.22 μm filter prior to use (see Table S1). R788 was also administered subconjunctivally as a suspension at a concentration of 25 mM in 10% 2-hydroxylpropyl-β-cyclodextrin (HPβCD, Sigma-Aldrich). For subconjunctival administration, R406 phenylsulfonate salt was administered at a concentration of 800–900 μM as a cosolvent solution in a formulation of 5% Cremaphor-eL, 0.5% ethanol, 0.2% Tween 80 and 94.3% PBS, filtered through a 0.22 μm filter prior to use (see Table S2). R406 phenylsulfonate salt was also administered subconjunctivally at a dose of 31.4 mM solution in DMSO. R406 free base was administered subconjunctivally at a concentration of 6.5 mM as a 25% castor oil (Sigma-Aldrich) emulsion. This emulsion was prepared by mixing castor oil: ethanol (1:1) solution of R406 (approx. 35 mM), in vacuo evaporation of the ethanol, and centrifugation to remove any excess R406, then emulsifying the R406 oil phase in an aqueous phase comprised of Cremaphor-eL, Tween 80 and PBS (final composition of the emulsion: 25% castor oil, 5% Cremaphor-eL, 0.2% Tween-80, 69.8% PBS) by probe sonication. For intravitreal injection, R788 solution was prepared by filtering a 0.12 mM (120 μM) solution of R788 in saline through a 0.22 μm filter. […] For topical delivery, 25–30 mM suspensions were prepared in 5% HPβCD. R406 or R788 concentration in all formulations was determined by UPLC prior to study (in cases where formulation was filtered before administration, concentration was determined post-filtering) Table I.
For the systemic delivery study R788 was administered as a single bolus dose (25 mg/kg, 10 mL/kg volume) by oral gavage. For the subconjunctival administration study R788 or R406 (10 µL of formulation) was injected into the subconjunctival space of an anesthetized mouse using a Hamilton microliter syringe (Hamilton company, Reno NV). For the intravitreal administration study, R788 (5 μL of […] in saline) was administered to each eye via direct injection. To perform the intravitreal injection, mice were anesthetized, a small incision between the sclera and the cornea was created with a […] needle, and the R788 was injected into the vitreous using a Hamilton microliter syringe. For the topical administration study, R406 (2 μL of 25–30 mM suspension) was applied as a drop to the surface of each eye of an anesthetized mouse.
At serial time points (0.5, 1, 2, 4, and 8 h post-injection, n = 3 for each time point), blood was collected by terminal cardiac puncture after isoflurane anesthesia. Whole-blood samples were centrifuged immediately at 10,000×g for 5 min at 4°C to separate plasma. Once the cardiac puncture and blood collection was completed, the animal was perfused with 10 mL of saline and euthanized by cervical dislocation. Eyes were removed, rinsed in PBS, gently patted dry, then rinsed and dried again. Eyes were dissected and vitreous was collected. Plasma and vitreous samples were put on dry ice immediately after collection and stored at −80°C until analysis. For quantitative analysis methods and assay validation methods and results, see Supplementary Information.
Plasma and vitreous concentration time data were analyzed using non-compartmental analysis in WinNonlin 6.2 (Pharsight, Mountain View, CA), providing PK parameters including Cmax (maximum observed concentration), Tmax (time to reach maximum observed concentration), AUC (area under the concentration time curve) and MRT (mean residence time). AUC and AUMC (area under the concentration time first moment curve) values were estimated with the linear trapezoidal method, with parameters calculated using mean concentration values at each time point. […]

[2] = tested on: SJ-39 retinoblastoma cells; test: Efficacy in human orthotopic xenograft mouse model of retinoblastoma (event-free survival); type: in vivo
Procedure: Preclinical testing was carried out in human orthotopic xenograft mice using the methods previously described ([10], [11]). SJ-39 retinoblastoma cells were injected into the vitreous of 30 immunocompromised mice (J:NU, The Jackson Laboratory (Bar Harbor, ME, USA)): 10 were untreated and 20 received subconjunctival injections of R406 in solution formulation (R406^oc) and systemic topotecan (TPT^syst) combination therapy administered over a 5-day course every third week as follows: 10 μL R406 per eye at a concentration of […] (8–9 nanomoles/eye) on day 1, and TPT^syst (0.7 mg/kg per dose, i.p.) on days 1 to 5 (see Fig. 1a). Mice were scheduled to receive six courses of therapy (18 weeks total). Before each course of therapy, mice were examined and intraocular pressure (IOP) was read as previously described ([10], [11]). If intraocular pressure was elevated above normal (IOP > 20) or eye rupture was observed, mice were taken off study and time to event was recorded. At the completion of the study event-free survival (EFS) was analyzed for the R406^oc/TPT^syst treated and untreated groups.
Since R406 is the SYK inhibitor farthest along in clinical development (Phase 3), and therefore the most likely compound to be tested clinically against retinoblastoma, we decided to focus upon its evaluation. In order to test the efficacy of R406 in vivo, we developed a solution formulation using FDA approved adjuvants for ophthalmic applications ([11]). The maximum concentration of R406 in solution was approximately 900 μM and R406 was chemically stable in formulation for 48 h at room temperature (Table S3 and Fig. S2). Next, we performed in vivo efficacy studies using the solution formulation of R406 in combination with systemic topotecan (standard for our preclinical evaluation of new retinoblastoma agents ([11]) following a clinically relevant dose and schedule as was previously done for nutlin-3a and BAY-61-3606 ([6], [11]). SJ-39 retinoblastoma cells were injected into the vitreous of 30 immunocompromised mice and animals were randomized into two treatment groups: 20 received subconjunctival injections of R406 in solution formulation (R406^oc) and systemic topotecan (TPT^syst) combination therapy administered over a 5-day course every third week (see Fig. 1a) and 10 were untreated. Animals were scheduled to receive 6 courses of treatment (18 weeks total), but no animal completed the entire 6 courses. All animals were taken off study by 63 days due to elevated intraocular pressure (IOP > 20) or eye rupture. Event free survival (EFS) was analyzed for the two groups (Fig. 1b). […]

[3] = co-solvent solution 0.88 mM, 8.8 nmol per eye

| Structure (SMILES) | Cmax ([1]; DMSO 31.4 mM, 314 nmol per eye) [nM] | Plasma AUClast ([1]; DMSO 31.4 mM, 314 nmol per eye) [µM·h] | Plasma Dose normalized AUC ([1]; DMSO 31.4 mM, 314 nmol per eye) [nM∙h/nmol] | Plasma Tlast ([1]; DMSO 31.4 mM, 314 nmol per eye) [h] | Plasma Tmax ([1]; DMSO 31.4 mM, 314 nmol per eye) [min] | Cmax [1, 3] [nM] | Plasma AUClast [1, 3] [µM·h] | Plasma Dose normalized AUC [1, 3] [nM∙h/nmol] | Plasma Tlast [1, 3] [h] | Plasma Tmax [1, 3] [min] | proportion of event free survivals at 21 days ([2]; subconjunctival R406 solution 8–9 nmol/eye day 1 + systemic topotecan 0.7 mg/kg i.p. days 1-5, every third week, n=20, untreated 50%) [%] | time by which all animals were taken off study (IOP > 20 or eye rupture) ([2]; subconjunctival R406 solution + systemic topotecan) [days] | proportion of event free survivals at 42 days ([2]; subconjunctival R406 solution + systemic topotecan, untreated 0%) [%] | Median event free survival ([2]; subconjunctival R406 solution + systemic topotecan, untreated 32.5 days, log-rank p = 0.005) [days] |
| --- | --- | --- | --- | --- | --- | --- | --- | --- | --- | --- | --- | --- | --- | --- |
| COc1cc(Nc2ncc(F)c(Nc3ccc4c(n3)NC(=O)C(C)(C)O4)n2)cc(OC)c1OC.O=S(=O)(O)c1ccccc1 [R406 phenylsulfonate salt] | 370 | 0.298 | 0.5 | 4 | 30 | 79 | 0.0429 | 2.4 | 1 | 30 |  |  |  |  |
| COc1cc(Nc2ncc(F)c(Nc3ccc4c(n3)NC(=O)C(C)(C)O4)n2)cc(OC)c1OC [R406] |  |  |  |  |  |  |  |  |  |  | 90 | ≤ 63 | 30 | 42 |
